The results in this text go back to paper PMC7532004, “Site-specific effects of neurosteroids on GABAA receptor activation and desensitization” (eLife, 2020).

The target of experiment [1] is α1(Q242L/N408A/Y411F)β3 GABAAR (UniProt P28472+P62813, N434A/Q268L/Y437F). Description: Two-electrode voltage clamp in Xenopus laevis oocytes, intersubunit + α1 intrasubunit mutant. Format: cell-based. On the set-up: expressed in transfected cells; host or cells: Xenopus laevis oocytes injected with cRNA. As to conditions: 3 μM 3α5αP, 1 mM GABA + 40 μM pentobarbital. How it is done:
(§1) The wild-type and mutant α1β3 GABAAR were expressed in oocytes from the African clawed frog (Xenopus laevis). Frogs were purchased from Xenopus 1 (Dexter, MI), and housed and cared for in a Washington University Animal Care Facility under the supervision of the Washington University Division of Comparative Medicine. Harvesting of oocytes was conducted under the Guide for the Care and Use of Laboratory Animals as adopted and promulgated by the National Institutes of Health. The animal protocol (No. 20180191) was approved by the Animal Studies Committee of Washington University in St. Louis. The oocytes were injected with a total of 12 ng cRNA. The ratio of cRNAs was 5:1 ratio (α1:β3) to minimize the expression of β3 homomeric receptors. Following injection, the oocytes were incubated in ND96 (96 mM NaCl, 2 mM KCl, 1.8 mM CaCl2, 1 mM MgCl2, 5 mM HEPES; pH 7.4) with supplements (2.5 mM Na pyruvate, 100 U/ml penicillin, 100 μg/ml streptomycin and 50 μg/ml gentamycin) at 16°C for 2 days prior to conducting electrophysiological recordings. The electrophysiological recordings were conducted at room temperature using standard two-electrode voltage clamp. The oocytes were clamped at −60 mV. The chamber (RC-1Z, Warner Instruments, Hamden, CT) was perfused with ND96 at 5–8 ml/min. […] Current traces were analyzed with Clampfit (Molecular Devices). […]

The target in experiment [2] is T1, α1(Q242L/N408A/Y411F)β3(Y284F) GABAAR (UniProt P28472+P62813, N434A/Q268L/Y309F/Y437F).
T1 construct: expressed in transfected cells; host or cells: Xenopus laevis oocytes injected with cRNA
Description: Two-electrode voltage clamp in Xenopus laevis oocytes, all three sites mutated. The experiment is classed as cell-based. As to conditions: 3 μM 3β5αP, 1 mM GABA + 25 μM pentobarbital. How it is done:
as §1

The test system of experiment [3] is α1β3(Y284F) GABAAR. The experiment in a line: Two-electrode voltage clamp in Xenopus laevis oocytes, Y284F mutant. The experiment is classed as cell-based. As to conditions: 3 μM 3β5αP, 1 mM GABA; α1β3(Y284F) vs WT. How it is done: as §1
Experiment [4] concerns α1(N408A/Y411F)β3 GABAAR. Description: Two-electrode voltage clamp in Xenopus laevis oocytes, N408A/Y411F mutant. Format: cell-based. The note with it: 3 μM 3β5αP, 1 mM GABA; α1(N408A/Y411F)β3 vs WT. How it is done:
as §1

Experiment [5] has as its target T2, α1β3 GABAARs on intact HEK cell surfaces (Homo sapiens, UniProt P14867+P28472).
T2 construct: inserted between the fourth and fifth residues of the mature peptide; photolabeling full-length heteropentameric GABAARs in native membranes; expressed in transfected cells
T2 sequence (P14867 28-456): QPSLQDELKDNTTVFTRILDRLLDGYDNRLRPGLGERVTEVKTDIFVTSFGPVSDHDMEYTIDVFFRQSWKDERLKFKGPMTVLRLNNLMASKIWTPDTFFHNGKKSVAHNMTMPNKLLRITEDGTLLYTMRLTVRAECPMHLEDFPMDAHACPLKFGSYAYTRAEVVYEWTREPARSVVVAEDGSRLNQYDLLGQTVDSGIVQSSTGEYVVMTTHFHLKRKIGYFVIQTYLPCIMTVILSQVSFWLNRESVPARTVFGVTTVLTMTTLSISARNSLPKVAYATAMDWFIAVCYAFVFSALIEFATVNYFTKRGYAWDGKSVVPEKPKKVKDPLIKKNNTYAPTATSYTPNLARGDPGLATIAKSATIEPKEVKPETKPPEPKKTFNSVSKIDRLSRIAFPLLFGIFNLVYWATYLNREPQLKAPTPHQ
T2 sequence (P28472 26-473): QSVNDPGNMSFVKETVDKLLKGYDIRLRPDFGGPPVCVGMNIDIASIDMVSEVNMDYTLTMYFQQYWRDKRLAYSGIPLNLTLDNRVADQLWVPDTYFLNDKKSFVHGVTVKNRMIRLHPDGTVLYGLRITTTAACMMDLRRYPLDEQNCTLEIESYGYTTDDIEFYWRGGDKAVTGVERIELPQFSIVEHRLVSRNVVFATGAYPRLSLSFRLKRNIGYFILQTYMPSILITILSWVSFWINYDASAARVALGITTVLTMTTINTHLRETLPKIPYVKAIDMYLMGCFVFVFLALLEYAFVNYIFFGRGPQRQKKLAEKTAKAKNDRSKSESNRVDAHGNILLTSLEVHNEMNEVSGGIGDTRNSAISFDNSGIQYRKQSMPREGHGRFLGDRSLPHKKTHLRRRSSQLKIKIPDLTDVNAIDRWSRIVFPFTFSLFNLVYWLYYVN
The experiment in a line: [3H]muscimol binding to intact HEK cells (cell surface vs total receptors). As to conditions: 10 μM KK148; 3 nM [3H]muscimol; intact vs permeabilized HEK cells. How it is done:
HEK cells were harvested by gently washing dishes with buffer containing 10 mM sodium phosphate (pH 7.5), 150 mM sodium chloride twice. The cells were collected by centrifugation at 500 g at 4°C for 5 min, and resuspended in isotonic (10 mM sodium phosphate, 150 mM sodium chloride, pH 7.5) or hypotonic (10 mM sodium phosphate, pH 7.5) buffer to prepare two different conditions for radioligand binding to intact cells [isotonic buffer for cell surface receptors; hypotonic buffer for total receptors (cell surface receptors + intracellular receptors)]. The cells were incubated on ice for 2 hr, after which the sodium chloride concentration was adjusted to be isotonic before the radioligand binding procedure. HEK cells were aliquoted to assay tubes (20 samples/150 mm dish) in a total volume of 1 ml, and incubated with 3 nM [^3H]muscimol ±10 μM KK148 for 1 hr on ice in the dark.

For `CC(=O)[C@H]1CC[C@H]2[C@@H]3CC[C@H]4C[C@H](O)CC[C@]4(C)[C@H]3CC[C@]12C` [3α5αP, allopregnanolone], the “Effect on steady-state current” value in experiment [1] is “significantly inhibited”.

Regarding `CC(=O)[C@H]1CC[C@H]2[C@@H]3CC[C@H]4C[C@@H](O)CC[C@]4(C)[C@H]3CC[C@]12C` [3β5αP, epi-allopregnanolone], the “Desensitizing effect with combined mutations of all three binding sites” value in experiment [2] is given as “not completely eliminated”. Besides, the “Prevention of 3β5αP-enhanced desensitization by mutation” value in experiment [3] and in experiment [4] was ~ 67% throughout.

Turning to `C#CCCO[C@H]1CC[C@H]2[C@@H]3CC[C@H]4CC5(CC[C@]4(C)[C@H]3CC[C@]12C)N=N5` [KK148], the “Enhancement of specific [3H]muscimol binding in intact cells” value in experiment [5] was “enhanced”.
